Results on one compound are retold here after ChEMBL document CHEMBL4619828, “Discovery of Potent and Orally Bioavailable Small Molecule Antagonists of Toll-like Receptors 7/8/9 (TLR7/8/9)” (ACS Med Chem Lett, 2020).

One series deals with Toll-like receptor 4 (Homo sapiens, UniProt O00206). Briefly: Antagonist activity at human TLR4 overexpressed in HEK-Blue cells assessed as inhibition of […] induced NFkappaB and AP-1 activation preincubated for 30 mins followed by […] stimulation measured after 22 hrs by quanti-blue SEAP assay. Type of series: cell-based.
Toll-like receptor 4, sequence (O00206 whole entry): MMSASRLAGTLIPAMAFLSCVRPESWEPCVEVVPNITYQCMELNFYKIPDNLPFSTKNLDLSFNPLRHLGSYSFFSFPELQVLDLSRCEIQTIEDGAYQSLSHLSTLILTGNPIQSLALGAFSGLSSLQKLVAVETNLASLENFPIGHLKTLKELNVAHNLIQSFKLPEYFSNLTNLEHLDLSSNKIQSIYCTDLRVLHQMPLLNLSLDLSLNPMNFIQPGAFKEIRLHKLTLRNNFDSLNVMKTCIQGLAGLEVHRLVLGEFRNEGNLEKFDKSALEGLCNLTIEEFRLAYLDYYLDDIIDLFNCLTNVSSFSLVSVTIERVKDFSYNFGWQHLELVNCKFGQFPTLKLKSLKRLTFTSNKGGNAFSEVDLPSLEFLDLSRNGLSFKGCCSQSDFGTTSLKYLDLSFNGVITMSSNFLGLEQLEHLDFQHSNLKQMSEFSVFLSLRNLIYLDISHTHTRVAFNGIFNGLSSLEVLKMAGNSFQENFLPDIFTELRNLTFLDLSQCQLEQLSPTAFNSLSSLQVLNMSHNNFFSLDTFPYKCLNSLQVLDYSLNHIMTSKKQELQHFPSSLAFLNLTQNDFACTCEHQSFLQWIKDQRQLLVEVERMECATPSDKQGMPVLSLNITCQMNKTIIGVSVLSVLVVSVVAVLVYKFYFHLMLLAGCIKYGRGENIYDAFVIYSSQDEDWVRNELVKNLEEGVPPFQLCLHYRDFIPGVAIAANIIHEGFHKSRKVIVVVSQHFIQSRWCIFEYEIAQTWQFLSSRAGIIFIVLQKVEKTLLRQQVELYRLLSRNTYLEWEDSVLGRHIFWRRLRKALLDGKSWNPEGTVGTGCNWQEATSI
The nature of series [1]: Clearance in mouse at 3 mg/kg, iv. The note with it: in vivo. In kind it is ADME, organism-based.
A short description of series [2]: Tmax in mouse at 15 mg/kg, po. Type of series: ADME, organism-based. The settings on record: in vivo.
For series [3], the target named is T1, Toll-like receptor 9 (Mus musculus, UniProt Q9EQU3).
T1 sequence (Q9EQU3 whole entry): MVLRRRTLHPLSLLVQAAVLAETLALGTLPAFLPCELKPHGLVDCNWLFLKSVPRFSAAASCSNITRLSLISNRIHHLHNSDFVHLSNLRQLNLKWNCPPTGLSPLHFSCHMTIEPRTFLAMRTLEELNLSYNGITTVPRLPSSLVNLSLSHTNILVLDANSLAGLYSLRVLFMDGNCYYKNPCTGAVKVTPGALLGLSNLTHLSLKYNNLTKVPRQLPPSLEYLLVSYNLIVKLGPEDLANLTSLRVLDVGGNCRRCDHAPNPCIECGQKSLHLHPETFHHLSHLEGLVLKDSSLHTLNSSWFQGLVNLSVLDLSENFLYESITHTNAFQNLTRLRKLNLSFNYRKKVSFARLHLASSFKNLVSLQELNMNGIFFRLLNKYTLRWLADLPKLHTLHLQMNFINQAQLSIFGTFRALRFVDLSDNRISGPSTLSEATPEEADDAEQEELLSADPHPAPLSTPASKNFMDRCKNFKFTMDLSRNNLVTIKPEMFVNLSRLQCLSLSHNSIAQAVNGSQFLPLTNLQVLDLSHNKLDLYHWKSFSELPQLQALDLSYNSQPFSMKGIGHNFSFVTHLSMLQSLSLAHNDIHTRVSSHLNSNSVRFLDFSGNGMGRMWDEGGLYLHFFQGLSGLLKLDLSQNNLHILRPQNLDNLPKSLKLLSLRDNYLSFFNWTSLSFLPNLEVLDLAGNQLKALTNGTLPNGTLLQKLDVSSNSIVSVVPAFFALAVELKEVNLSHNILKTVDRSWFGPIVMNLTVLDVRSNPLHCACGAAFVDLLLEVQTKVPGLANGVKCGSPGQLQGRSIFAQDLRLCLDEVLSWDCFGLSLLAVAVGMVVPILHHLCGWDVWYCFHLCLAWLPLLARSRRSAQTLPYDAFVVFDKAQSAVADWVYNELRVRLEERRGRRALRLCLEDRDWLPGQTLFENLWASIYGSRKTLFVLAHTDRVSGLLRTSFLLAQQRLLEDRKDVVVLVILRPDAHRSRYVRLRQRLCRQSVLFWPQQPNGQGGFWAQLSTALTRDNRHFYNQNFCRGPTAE
Description: In vivo antagonist activity at TLR9 in po dosed C57BL/6 mouse assessed as reduction of CpG-ODN-1585-induced IL-6 production pretreated for 30 mins followed by CpG-ODN-1585-stimulation and measured after 120 mins by ELISA

Series [4] deals with T2, Toll-like receptor 9 (Homo sapiens, UniProt Q9NR96).
T2 sequence (Q9NR96 whole entry): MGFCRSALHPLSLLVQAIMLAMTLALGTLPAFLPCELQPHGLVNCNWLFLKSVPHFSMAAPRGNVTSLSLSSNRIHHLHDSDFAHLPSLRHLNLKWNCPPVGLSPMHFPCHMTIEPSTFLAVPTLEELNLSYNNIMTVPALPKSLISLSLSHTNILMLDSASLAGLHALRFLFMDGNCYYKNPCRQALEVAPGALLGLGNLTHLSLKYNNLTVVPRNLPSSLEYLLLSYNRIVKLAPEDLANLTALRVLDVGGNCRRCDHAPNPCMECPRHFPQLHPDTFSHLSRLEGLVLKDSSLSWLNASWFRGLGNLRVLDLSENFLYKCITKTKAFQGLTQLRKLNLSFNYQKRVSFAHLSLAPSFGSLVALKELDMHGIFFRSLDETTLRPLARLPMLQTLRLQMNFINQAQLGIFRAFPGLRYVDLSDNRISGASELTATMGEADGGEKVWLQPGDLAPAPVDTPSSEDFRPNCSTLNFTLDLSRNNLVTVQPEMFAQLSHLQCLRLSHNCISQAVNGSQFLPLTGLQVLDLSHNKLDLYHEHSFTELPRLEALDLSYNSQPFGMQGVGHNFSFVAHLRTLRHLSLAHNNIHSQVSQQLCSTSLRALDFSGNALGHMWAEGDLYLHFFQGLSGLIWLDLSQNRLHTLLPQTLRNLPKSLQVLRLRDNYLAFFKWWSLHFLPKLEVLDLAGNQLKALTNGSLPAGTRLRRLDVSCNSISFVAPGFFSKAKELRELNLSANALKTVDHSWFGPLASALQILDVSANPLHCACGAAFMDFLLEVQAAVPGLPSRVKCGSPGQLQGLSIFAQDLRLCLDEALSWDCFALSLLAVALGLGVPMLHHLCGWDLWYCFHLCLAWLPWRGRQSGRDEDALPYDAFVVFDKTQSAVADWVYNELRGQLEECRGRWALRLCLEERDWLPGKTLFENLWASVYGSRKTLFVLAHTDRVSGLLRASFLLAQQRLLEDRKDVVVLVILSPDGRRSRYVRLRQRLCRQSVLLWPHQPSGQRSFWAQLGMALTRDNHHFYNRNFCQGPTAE
The experiment in a line: Agonist activity at human TLR9 overexpressed in HEK-Blue cells assessed as NFkappaB expression by reporter gene assay. Type of series: cell-based. On the technique in general: In a reporter assay the amount or activity of a reporter protein is the signal.

In series [5] the target is T2, Toll-like receptor 9. The experiment in a line: Antagonist activity at TLR9 in human whole blood cells assessed as inhibition of ODN-2216 induced IL-6 production by ELISA. In kind it is cell-based.

Molecules are shown by their SMILES. pEC50, pIC50: −log10 of the molar value. Where only a bound is given, the exact number is not on record here.

The term pIC50 denotes the negative decadic logarithm of the IC50, by convention in mol/L. As usually defined, the clearance is the rate of elimination divided by the concentration. Low values mean a low capacity for elimination, high ones a high capacity for elimination. By Tmax is commonly meant the time from dosing to the highest level. Broadly, the pEC50 is the EC50 on a negative log10 scale, so that one unit is a factor of ten. Low values mean a large EC50, high ones a small EC50. On to `CNCCN1CCC(c2ccc3[nH]c(-c4ccc(OC)c(OC)c4)c(C(C)C)c3c2)CC1`, for which the pIC50 was 4.82 on Toll-like receptor 4, less than 4.30 on Toll-like receptor 9 [4] and 6.49 on Toll-like receptor 9 [5]. In series [1], this compound had a clearance of 7.7 mL/min/kg. For the same compound, in series [2], the Tmax stood at 30 min. The pEC50 on Toll-like receptor 9 [3] was 7.60.
